Data taken from ChEMBL document CHEMBL1201862, “PubChem BioAssay data set” (2004).
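Each compound was tested at five concentrations against cells in 96-well plates for 48 hours. The concentration for 50% growth inhibition is given as GI50.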 Activity calls are given as the source filed them. Cut-off read from the data, not from the text of the source: active = GI50 up to about 1.1 µM and inactive = higher.

Tests used:
Experiment in all cases: inhibition of tumour cell growth, NCI panel, 48 h
NCI-H226 = system: NCI-H226
OVCAR-4 = system: OVCAR-4
LOX IMVI = system: LOX IMVI
HCC 2998 = system: HCC 2998
SNB-75 = system: SNB-75
CCRF-CEM = system: CCRF-CEM
NCI-H23 = system: NCI-H23
Malme-3M = system: Malme-3M
SF-295 = system: SF-295
ACHN = system: ACHN
U-251 = system: U-251
UO-31 = system: UO-31
HOP-62 = system: HOP-62
SN12C = system: SN12C
UACC-62 = system: UACC-62
SK-MEL-5 = system: SK-MEL-5
SK-OV-3 = system: SK-OV-3
786-0 = system: 786-0
MDA-N = system: MDA-N

SMILES	GI50 (NCI-H226)	GI50 (OVCAR-4)	GI50 (LOX IMVI)	GI50 (HCC 2998)	GI50 (SNB-75)	GI50 (CCRF-CEM)	GI50 (NCI-H23)	GI50 (Malme-3M)	GI50 (SF-295)	GI50 (ACHN)	GI50 (U-251)	GI50 (UO-31)	GI50 (HOP-62)	GI50 (SN12C)	GI50 (UACC-62)	GI50 (SK-MEL-5)	GI50 (SK-OV-3)	GI50 (786-0)	GI50 (MDA-N)
CC1=NN(c2nc(N)nc(C/C(N)=N/O)n2)C(C)(C)C1	> 100 µM (inactive)	> 100 µM (inactive)	> 100 µM (inactive)	> 100 µM (inactive)	> 100 µM (inactive)	> 100 µM (inactive)	> 100 µM (inactive)	> 100 µM (inactive)	> 100 µM (inactive)	> 100 µM (inactive)	> 100 µM (inactive)	> 100 µM (inactive)	> 100 µM (inactive)	> 100 µM (inactive)	> 100 µM (inactive)	> 100 µM (inactive)	> 100 µM (inactive)	> 100 µM (inactive)	–
CC1OC(OC2C(OC(=O)[C@@H]3CC(C)(C)C[C@@H]4C5=CC[C@@H]6[C@@]7(C)C[C@H](O)[C@H](OC8OC(CO)C(O)C(O)C8O)[C@@](C)(CO)C7[C@H](O)C[C@@]6(C)[C@]5(C)C[C@@H](O)[C@H]43)OCC(O)C2O)C(O)C(O)C1O (some centres not stated)	> 15 µM (inactive)	12.9 µM (inactive)	> 15 µM (inactive)	8.69 µM (inactive)	> 15 µM (inactive)	> 15 µM (inactive)	7.05 µM (inactive)	–	> 15 µM (inactive)	> 15 µM (inactive)	> 15 µM (inactive)	6.49 µM (inactive)	> 15 µM (inactive)	5.57 µM (inactive)	> 15 µM (inactive)	> 15 µM (inactive)	> 15 µM (inactive)	> 15 µM (inactive)	–
Cc1cc(C)nc(NS(=O)(=O)c2ccc(NC(=O)c3cc([N+](=O)[O-])cc([N+](=O)[O-])c3)cc2)n1	> 100 µM (inactive)	22.9 µM (inactive)	26.8 µM (inactive)	–	15.6 µM (inactive)	59.7 µM (inactive)	> 100 µM (inactive)	42.1 µM (inactive)	–	–	84.3 µM (inactive)	> 100 µM (inactive)	> 100 µM (inactive)	70.6 µM (inactive)	77.3 µM (inactive)	95.3 µM (inactive)	> 100 µM (inactive)	> 100 µM (inactive)	> 100 µM (inactive)
CC1=CC2=C(C(N)=O)C(=O)OC2(C)C(c2ccccc2)C1 (configuration not stated)	> 100 µM (inactive)	> 100 µM (inactive)	> 100 µM (inactive)	–	3.03 µM (inactive)	–	–	> 100 µM (inactive)	> 100 µM (inactive)	> 100 µM (inactive)	> 100 µM (inactive)	> 100 µM (inactive)	> 100 µM (inactive)	> 100 µM (inactive)	> 100 µM (inactive)	–	> 100 µM (inactive)	> 100 µM (inactive)	> 100 µM (inactive)
COc1c(O)cc2c(c1O)C(=O)C(Cc1ccc(O)cc1)CO2 (configuration not stated)	–	40.3 µM (inactive)	> 100 µM (inactive)	–	5.79 µM (inactive)	–	> 100 µM (inactive)	> 100 µM (inactive)	65.8 µM (inactive)	> 100 µM (inactive)	> 100 µM (inactive)	> 100 µM (inactive)	94.6 µM (inactive)	> 100 µM (inactive)	99.8 µM (inactive)	84.9 µM (inactive)	68.9 µM (inactive)	> 100 µM (inactive)	32.1 µM (inactive)
CC(=O)Nc1ccc(S(=O)(=O)/N=c2/sc(S(N)(=O)=O)nn2C)cc1	> 100 µM (inactive)	> 100 µM (inactive)	–	> 100 µM (inactive)	> 100 µM (inactive)	–	> 100 µM (inactive)	> 100 µM (inactive)	> 100 µM (inactive)	> 100 µM (inactive)	> 100 µM (inactive)	> 100 µM (inactive)	> 100 µM (inactive)	–	> 100 µM (inactive)	–	> 100 µM (inactive)	> 100 µM (inactive)	–
COc1c(C)c(C/C=C(\C)CC/C=C(\C)CC/C=C(\C)CC/C=C(\C)CCC=C(C)C)c(OC)c(OC)c1OC	–	19.9 µM (inactive)	17.1 µM (inactive)	–	43 µM (inactive)	23.9 µM (inactive)	17.6 µM (inactive)	–	19.9 µM (inactive)	16.4 µM (inactive)	79.6 µM (inactive)	21.6 µM (inactive)	15.6 µM (inactive)	22.9 µM (inactive)	> 100 µM (inactive)	16.7 µM (inactive)	> 100 µM (inactive)	16.9 µM (inactive)	31.4 µM (inactive)
O=C1c2ccc3ccccc3c2CCC1N1CCCCC1 (configuration not stated)	15.8 µM (inactive)	16.6 µM (inactive)	19.2 µM (inactive)	–	17.4 µM (inactive)	–	19.7 µM (inactive)	17.6 µM (inactive)	19.3 µM (inactive)	17.7 µM (inactive)	18.9 µM (inactive)	15.6 µM (inactive)	18.7 µM (inactive)	15.6 µM (inactive)	16.7 µM (inactive)	17 µM (inactive)	22 µM (inactive)	18 µM (inactive)	–
CCOP(=O)(OCC)c1cc(-c2ccccc2)ccc1N	–	89.1 µM (inactive)	–	> 100 µM (inactive)	81.7 µM (inactive)	> 100 µM (inactive)	> 100 µM (inactive)	> 100 µM (inactive)	92.3 µM (inactive)	> 100 µM (inactive)	> 100 µM (inactive)	> 100 µM (inactive)	37.2 µM (inactive)	–	> 100 µM (inactive)	> 100 µM (inactive)	> 100 µM (inactive)	> 100 µM (inactive)	> 100 µM (inactive)
Cc1ccc2c(c1)NC(=O)CCSSCCC(=O)N2	> 100 µM (inactive)	> 100 µM (inactive)	> 100 µM (inactive)	–	–	> 100 µM (inactive)	> 100 µM (inactive)	> 100 µM (inactive)	> 100 µM (inactive)	> 100 µM (inactive)	> 100 µM (inactive)	> 100 µM (inactive)	> 100 µM (inactive)	> 100 µM (inactive)	> 100 µM (inactive)	> 100 µM (inactive)	> 100 µM (inactive)	> 100 µM (inactive)	> 100 µM (inactive)
COc1ccc(S(=O)(=O)Nc2ccc(-c3csc(N4C(=O)/C(=C/c5ccccc5)N=C4c4ccccc4)n3)cc2)cc1Cl	33.2 µM (inactive)	27.2 µM (inactive)	32.5 µM (inactive)	–	29.2 µM (inactive)	43.5 µM (inactive)	23.2 µM (inactive)	38.3 µM (inactive)	41.7 µM (inactive)	34.8 µM (inactive)	23.7 µM (inactive)	5.62 µM (inactive)	36.4 µM (inactive)	65.6 µM (inactive)	16.8 µM (inactive)	28.4 µM (inactive)	79.3 µM (inactive)	46.5 µM (inactive)	38.7 µM (inactive)
CNC(=O)C(C)C1C(=O)/C(=C(O)/C=C\C(C)=C\C(C)C2OC3(C)OC(C=CC34CO4)C2C)C(=O)N1C1CCC(O)C(C)O1 (configuration not stated)	–	–	–	> 100 µM (inactive)	> 100 µM (inactive)	> 100 µM (inactive)	–	> 100 µM (inactive)	–	> 100 µM (inactive)	> 100 µM (inactive)	> 100 µM (inactive)	> 100 µM (inactive)	> 100 µM (inactive)	> 100 µM (inactive)	> 100 µM (inactive)	> 100 µM (inactive)	> 100 µM (inactive)	> 100 µM (inactive)
c1ccc(/C(=N/Nc2ccncn2)c2ccccn2)cc1	15.8 µM (inactive)	49.1 µM (inactive)	–	> 100 µM (inactive)	18.9 µM (inactive)	1.65 µM (inactive)	17.6 µM (inactive)	–	23.1 µM (inactive)	5.82 µM (inactive)	39.6 µM (inactive)	15.5 µM (inactive)	31.7 µM (inactive)	35 µM (inactive)	26.4 µM (inactive)	15.4 µM (inactive)	23.7 µM (inactive)	17.8 µM (inactive)	58.5 µM (inactive)
Cc1cnc2c(c1C)C(=O)c1ccccc1C2=O	36.8 µM (inactive)	18.8 µM (inactive)	–	29.7 µM (inactive)	32.9 µM (inactive)	69.8 µM (inactive)	44.7 µM (inactive)	–	50.2 µM (inactive)	36.4 µM (inactive)	61.5 µM (inactive)	21.2 µM (inactive)	2.47 µM (inactive)	28.6 µM (inactive)	–	11.8 µM (inactive)	50.5 µM (inactive)	65.2 µM (inactive)	–
O=C1/C(=C\c2ccccc2)C(NC2CCCCC2)c2ccccc21 (configuration not stated)	6.24 µM (inactive)	1.79 µM (inactive)	1.66 µM (inactive)	–	2.17 µM (inactive)	0.124 µM (active)	0.76 µM (active)	1.46 µM (inactive)	18.8 µM (inactive)	0.923 µM (active)	1.73 µM (inactive)	1.1 µM (active)	2.46 µM (inactive)	1.55 µM (inactive)	2.38 µM (inactive)	2.37 µM (inactive)	14 µM (inactive)	0.828 µM (active)	1.43 µM (inactive)
CCOC(=O)C1=COC(C)(CCc2ccccc2)CC1=O (configuration not stated)	–	> 100 µM (inactive)	–	–	> 100 µM (inactive)	–	95.5 µM (inactive)	–	> 100 µM (inactive)	> 100 µM (inactive)	41.3 µM (inactive)	91.2 µM (inactive)	> 100 µM (inactive)	> 100 µM (inactive)	55.7 µM (inactive)	94 µM (inactive)	> 100 µM (inactive)	> 100 µM (inactive)	87.7 µM (inactive)
